Source: patent US8389557B2, “Triazole derivatives useful as Axl inhibitors” (Rigel Pharmaceuticals, Inc., priority 2005, dated 2013)
Counter-ions that a name gives are not always drawn.

Target: T1, Axl (Homo sapiens, UniProt P30530)
T1 construct: endogenous in cells; host or cells: HeLa cells
T1 sequence (P30530 26-894): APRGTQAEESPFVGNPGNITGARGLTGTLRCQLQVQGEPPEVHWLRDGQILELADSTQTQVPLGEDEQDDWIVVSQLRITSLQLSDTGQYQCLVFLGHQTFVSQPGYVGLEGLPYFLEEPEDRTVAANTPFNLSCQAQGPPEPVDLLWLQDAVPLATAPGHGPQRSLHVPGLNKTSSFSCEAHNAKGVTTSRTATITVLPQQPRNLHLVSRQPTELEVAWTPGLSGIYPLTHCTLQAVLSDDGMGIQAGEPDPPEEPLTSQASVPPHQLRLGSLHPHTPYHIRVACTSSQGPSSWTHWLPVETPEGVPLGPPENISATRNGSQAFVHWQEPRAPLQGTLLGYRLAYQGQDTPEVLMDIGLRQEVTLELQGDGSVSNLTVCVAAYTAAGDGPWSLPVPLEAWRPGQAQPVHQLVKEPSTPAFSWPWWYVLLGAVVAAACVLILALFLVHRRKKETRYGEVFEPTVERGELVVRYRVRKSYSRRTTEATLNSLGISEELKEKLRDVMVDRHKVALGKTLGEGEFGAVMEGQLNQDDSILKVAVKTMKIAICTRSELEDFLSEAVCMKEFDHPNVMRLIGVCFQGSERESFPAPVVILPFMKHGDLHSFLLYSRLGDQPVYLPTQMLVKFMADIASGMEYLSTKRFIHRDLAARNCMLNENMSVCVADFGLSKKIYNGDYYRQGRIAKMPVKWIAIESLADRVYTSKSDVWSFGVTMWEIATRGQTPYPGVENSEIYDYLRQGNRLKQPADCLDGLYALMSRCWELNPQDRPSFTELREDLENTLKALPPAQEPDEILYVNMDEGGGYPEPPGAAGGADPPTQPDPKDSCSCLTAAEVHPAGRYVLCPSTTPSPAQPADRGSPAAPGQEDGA
Test: Phospho-Akt in-cell Western assay (inhibition of Axl activity)
Type: cell-based
Procedure, shortened: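 HeLa cells on poly-L-lysine, starved 24 h in 0.5% FCS DMEM with Axl/Fc 500 ng/mL, pre-treated with compound 1 h at 37° C. Axl stimulated 5 min by anti-Axl/anti-mouse antibody cross-linking. Fixed cells probed with anti-phospho-Akt and HRP secondary, chemiluminescence read.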

[1] = inhibition of Axl activity, phospho-Akt in-cell Western assay, Table 1
[2] = inhibition of Axl activity, Table 1
[3] = Table 5, Hela cells, Axl antibody cross-linking stimulation, phospho-Akt chemiluminescence

Nc1nc(Nc2ccc(OCCN3CCCC3)cc2)nn1C(=O)c1cc2ccccc2[nH]1 [compound #6, 5-Amino-1-(1H-indol-2-yl)carbonyl-3-[4-[2-(pyrrolidin-1-yl)ethoxy]phenylamino]-1H-1,2,4-triazole]
IC50 (Table 3, Hela cells, Axl antibody cross-linking stimulation, phospho-Akt chemiluminescence): < 1000 nM

COc1cc(Nc2nc(N)n(C(=O)c3ccc(C(C)(C)C)cc3)n2)ccc1OCCN1CCCC1 [compound 315, 5-amino-1-(4-(tert-butyl)phenyl)carbonyl-3-[3-methoxy-4-[2-(pyrrolidin-1-yl)ethoxy]phenylamino]-1H-1,2,4-triazole]
IC50 [1]: < 1000 nM

Nc1nc(Nc2cccc(OCCN3CCOCC3)c2)nn1C(=O)c1ccccc1 [(Ia-26), 5-amino-3-[3-[2-(morpholin-4-yl)ethoxy]phenylamino]-1-phenylcarbonyl-1H-1,2,4-triazole, hydrogen chloride salt]
IC50 [2]: > 20000 nM

CC(C)Oc1ccc(C(=O)n2nc(Nc3ccc(OCCN4CCOCC4)cc3)nc2N)cc1 [compound 159]
IC50 [2]: < 1000 nM

CCOc1ccc(Nc2nc(N)n(C(=O)c3ccc(OC(C)C)cc3)n2)cc1 [compound 118, 5-amino-3-[4-(ethoxy)phenylamino]-1-(4-(iso-propoxy)phenyl)carbonyl-1H-1,2,4-triazole]
IC50 [2]: 1000 to 10000 nM

CN(C)c1ccc(C(=O)n2nc(Nc3ccc(OCCN4CC[C@H](F)C4)cc3)nc2N)cc1 [compound 385, 5-amino-1-(4-(dimethylamino)phenyl)carbonyl-3-[4-[2-((S)-3-fluoropyrrolidin-1-yl)ethoxy]phenylamino]-1H-1,2,4-triazole]
IC50 [1]: < 1000 nM

CC(C)(C)OC(=O)NC1CCOc2ccc(Nc3nc(N)n(C(=O)c4ccc5cc[nH]c5c4)n3)cc21 (stereo not shown) [compound 276]
IC50 (Table 9, Hela cells, Axl antibody cross-linking stimulation, phospho-Akt chemiluminescence): 1000 to 10000 nM

CC(C)(C)Oc1ccc(C(=O)n2nc(Nc3ccc(OCCN4CCCC4)cc3)nc2N)cc1 [compound #1, 5-Amino-3-[4-[2-(pyrrolidin-1-yl)ethoxy]phenylamino]-1-(4-(tert-butoxy)phenyl)carbonyl-1H-1,2,4-triazole]
IC50 [1]: < 1000 nM

Cc1cccc(C(=O)n2nc(Nc3ccc4c(cnn4C)c3)nc2N)c1 [compound 227, 5-amino-3-[1-methyl-1H-indazol-5-yl]amino-1-(3-methylphenyl)carbonyl-1H-1,2,4-triazole]
IC50 [3]: 1000 to 10000 nM

CC(C)Oc1ccc(C(=O)n2nc(Nc3cccc(OC(C)C)c3)nc2N)cc1 [compound 122, 5-amino-3-[3-(iso-propoxy)phenylamino]-1-(4-(iso-propoxy)phenyl)carbonyl-1H-1,2,4-triazole]
IC50 [2]: 1000 to 10000 nM

COc1cccc(Nc2nc(N)n(C(=O)c3ccc(C)cc3)n2)c1 [compound 134, 5-amino-3-[3-(methoxy)phenylamino]-1-(4-(methyl)phenyl)carbonyl-1H-1,2,4-triazole]
IC50 [2]: 1000 to 10000 nM

Nc1nc(Nc2ccc(OCCN3CCCCC3)cc2)n(C(=O)NC2CCCCC2)n1 [compound 189, 3-amino-N-cyclohexyl-5-[4-[2-(piperidin-1-yl)ethoxy]phenylamino]-1H-1,2,4-triazole-1-carboxamide]
IC50 (Table 8, Hela cells, Axl antibody cross-linking stimulation, phospho-Akt chemiluminescence): 1000 to 10000 nM

CC(=O)N(C)c1ccc(Nc2nc(N)n(C(=O)Nc3ccc4c(c3)OCO4)n2)cc1 [compound 175, 3-[4-(acetyl(methyl)amino)phenyl]amino-5-amino-N-(1,3-benzodioxol-5-yl)-1H-1,2,4-triazole-1-carboxamide]
IC50 (Table 7, Hela cells, Axl antibody cross-linking stimulation, phospho-Akt chemiluminescence): 1000 to 10000 nM

Cc1cccc(C(=O)n2nc(Nc3ccc4[nH]ccc4c3)nc2N)c1 [compound 252, 5-amino-3-(1H-indol-5-yl)amino-1-(3-methylphenyl)carbonyl-1H-1,2,4-triazole]
IC50 [3]: 1000 to 10000 nM

Nc1nc(Nc2ccc(Cl)cc2)nn1C(=O)c1ccc(Cl)cc1 [compound 217, 5-amino-3-(4-chlorophenyl)amino-1-(4-chlorophenyl)carbonyl-1H-1,2,4-triazole]
IC50 [2]: > 20000 nM

CN(C)c1cccc(C(=O)n2nc(N)nc2NC2C3C=CC(C3)C2C(N)=O)c1 (stereo not shown) [compound 351, 3-amino-1-(3-(dimethylamino)phenyl)carbonyl-5-[(3-(aminocarbonyl)bicyclo[2.2.1]hept-5-en-2-yl)amino]-1H-1,2,4-triazole]
IC50 (Table 6, Hela cells, Axl antibody cross-linking stimulation, phospho-Akt chemiluminescence): > 20000 nM
